pIC50: −log10 of the molar value.
What was measured:
[1] = target: T1, binding of H^3-substance P to bovine retina (Bos taurus, UniProt F1MIX5); experiment: binding of H^3-substance P to bovine retina, radio receptor assay; details: read-out: in vitro values (IC50), inhibition of binding of H^3-substance P to bovine retina
T1 construct: from tissue; host or cells: bovine retina
Method: In addition, the binding of H^3-substance P to bovine retina in the radio receptor assay according to H. Bittiger, Ciba Foundation Symposium 91, 196-199 (1982) is inhibited with IC50 values of from approximately 1 nmol. For example, the following in vitro values of about 10 nM were obtained for the target compounds of Examples 1 and 2.

T1 sequence (F1MIX5 1-407): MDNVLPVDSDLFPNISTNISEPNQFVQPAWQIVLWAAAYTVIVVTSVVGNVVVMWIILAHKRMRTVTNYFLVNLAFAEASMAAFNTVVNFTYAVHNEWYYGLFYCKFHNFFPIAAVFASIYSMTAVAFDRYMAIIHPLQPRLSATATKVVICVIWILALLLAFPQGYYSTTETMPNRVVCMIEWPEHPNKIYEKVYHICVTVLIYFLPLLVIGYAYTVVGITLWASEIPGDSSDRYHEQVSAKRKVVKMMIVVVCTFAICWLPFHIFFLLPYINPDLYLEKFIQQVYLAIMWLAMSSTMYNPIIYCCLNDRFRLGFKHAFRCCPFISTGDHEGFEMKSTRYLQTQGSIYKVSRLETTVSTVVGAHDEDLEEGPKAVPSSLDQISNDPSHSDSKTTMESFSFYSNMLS

Row | melting point [°C] | pIC50 [1] | Compound
1 | 223 to 225 | ~8.00 | O=C(N[C@H]1CCN(C(=O)c2cc(C(F)(F)F)cc(C(F)(F)F)c2)[C@H](Cc2ccc(Cl)cc2)C1)c1cc[n+]([O-])c2ccccc12 [Example 1, 1-Oxy-quinoline-4-carboxylic acid [(2R,4S)-1-(3,5-bis-trifluoromethyl-benzoyl)-2-(4-chloro-benzyl)-piperidin-4-yl]-amide]
2 | 222 to 224 | ~8.00 | O=C(N[C@H]1CCN(C(=O)c2cc(C(F)(F)F)cc(C(F)(F)F)c2)[C@H](Cc2ccc(Cl)cc2)C1)c1cc(O)nc2ccccc12 [Example 2, 2-Hydroxy-quinoline-4-carboxylic acid [(2R,4S)-1-(3,5-bis-trifluoromethyl-benzoyl)-2-(4-chloro-benzyl)-piperidin-4-yl]-amide]

Source: patent US8193218B2, “Aroyl-piperidine derivatives and method of treating disorders induced by substance P” (Novartis AG, priority 2002, dated 2012)
